Measured values reported in patent US20050142534A1, “Methods and compositions related to a matrix chip” (priority 2003, published 2005).

How the values were obtained:
Assay type in all cases: cell-based
[1] = tested on: normal cells and abnormal cells; experiment: Inverted slide-based nuclease digestion test with thiol reagent; conditions: thiol reagent added to the treatment solution
Experimental: Certain embodiments of the invention include a slide-based test. One example of a slide based test includes obtaining a test sample, (e.g., scraping cells off of their culture plates); suspending the sample in phosphate buffered saline (PBS); administering a drop of the cell suspension on a laminin coated slide. The sample administered to the coated slide is allowed to air dry (about 15 minutes). The dried slide is subjected to digestion with ALU (about 15 minutes). After digestion the slide is stained with ethidium bromide (1 minute) and imaged under fluorescence. Aside from being fast, this method is an improvement on standard “smear” methods (like Pap tests) in that it is insensitive to the air-drying artifacts that cause major problems with the standard methods and necessitate using preservatives and fixatives. An alternative sampling technique includes depositing cells by contacting the slide with a tissue block.
Thus, the result of the method is inverted. Inversion of the test can be produced by adding a thiol reagent such as DTT to the treatment solution.

[2] = tested on: normal vasculogenic endothelial cells; experiment: Formation of vasculogenic cords by normal endothelial cells on matrix; conditions: normal endothelial cells on thin and thick matrix; agent added to the culture medium
Excerpt: With the specific exception of normal vasculogenic endothelial cells, normal cells and cancer cells of low invasive potential form clusters containing small numbers of cells when grown to less than confluent density on serum proteins absorbed to a solid support or on layers of extracellular matrix ranging from less than 50 microns to over 1000 microns in thickness. […] Normal vasculogenic […] cells grown to confluent density on absorbed serum proteins form characteristic “cobblestone” monolayers. These normal endothelial cells form distinctive cord-like structures when grown on thin matrix and networks of these cords when grown on thick matrix. The formation of these vasculogenic cords, which are known to be precursors to the formation of blood vessels, is prevented by the addition of anti-angiogenic agents such as the drug TNP-470 (a derivative of flimagillin) to the culture medium.

[3] = tested on: invasive tumor cells forming tumor nests; experiment: Labeling of nuclei of invasive tumor cells in tumor nests on thick matrix by DNA-binding agents; conditions: even after prolonged exposure
Excerpt: Rather, they form clusters or sheets of cells with no evidence of the formation of perfusion channels. […] Invasive tumor cells grown in vitro on thick matrix and stained by the addition of bisbenzimide to the culture medium show staining restricted to the nuclei of the cells on the peripheries of the individual cell clusters forming the tumor nest. These and other similar experiments reveal that polar agents such as bisbenzimide and doxorubicin are systematically excluded from the cells comprising tumor nests while these cells are accessible to neutral molecules of similar molecular weights.

[4] = tested on: tumor cells grown on thin matrix; experiment: Labeling of nuclei of tumor cells grown on thin matrix by DNA-binding agents
Excerpt: Rather, they form clusters or sheets of cells with no evidence of the formation of perfusion channels. […] […] These and other similar experiments reveal that polar agents such as bisbenzimide and doxorubicin are systematically excluded from the cells comprising tumor nests while these cells are accessible to neutral molecules of similar molecular weights.

tumor nest = experiment: Perfusion of tumor nests by neutral fluorescent dyes and dextran conjugates; conditions: microinjected into a sinusoid of a tumor nest; fluorescence microscopy
Excerpt: Invasive tumor cells grown on thick layers of extracellular matrix protein form tumor nests in vitro and can be used as model systems for the evaluation of the efficacy of anti-cancer drugs against similar structures in vivo. Fluorescence microscopy images of a fluorescent dye Texas Red microinjected into a sinusoid of a tumor nest will typically show the movement of the dye into the perfusion channels between clumps of tumor cells in the tumor nest. […] This same pattern of perfusion is evident when neutral fluorescent dyes are applied to tissues or layers of matrix proteins containing tumor nests rather than being injected into the nests.

Compound	labeling of nuclei [3]	labeling of nuclei [4]	further results
O[C@@H](CS)[C@@H](O)CS [DTT]	–	–	effect on result of nuclease digestion test [1]: normal cells remain intact and the abnormal cells are degraded
CO[C@@H]1[C@H](OC(=O)NC(=O)CCl)CC[C@]2(CO2)[C@H]1[C@@]1(C)O[C@@H]1CC=C(C)C [TNP-470]	–	–	formation of vasculogenic cords [2]: prevented
CN1CCN(c2ccc3[nH]c(-c4ccc5[nH]c(-c6ccc(O)cc6)nc5c4)nc3c2)CC1 [bisbenzimide]	only the nuclei of cells on the peripheries of the tumor cell clusters forming the nests are labeled	rapidly and efficiently labeled	–
COc1cccc2c1C(=O)c1c(O)c3c(c(O)c1C2=O)C[C@@](O)(C(=O)CO)C[C@@H]3O[C@H]1C[C@H](N)[C@H](O)[C@H](C)O1 [doxorubicin]	only the nuclei of cells on the peripheries of the tumor cell clusters forming the nests are labeled	rapidly and efficiently labeled	–
Texas Red	–	–	movement of dye into perfusion channels of tumor nest (tumor nest): the tumor nest is permeated by the dye
